The source of these data is ChEMBL document CHEMBL6134848, “Deuteration Strategy-Inspired Design of Novel Diarylpyrimidine Derivatives as Potent Non-Nucleoside Reverse Transcriptase Inhibitors Featuring Improved Efficacy, Selectivity, and Druggability” (J Med Chem, 2025).

Series [1] is described as follows: Protein binding in human plasma assessed as drug recovery rate at 1 uM incubated for 6 hrs. It is filed as ADME, cell-free. The following applies: read-out: Drug recovery.
Series [2] is described as follows: Solubility of compound at pH 7. The following applies: buffer. The format is physicochemical.
Series [3] can be described thus: Cytotoxicity against human MT4 cells assessed as reduction in cell viability by MTT assay. The format is toxicity, cell-based.
In series [4] the test system is Human immunodeficiency virus 1. The series can be described thus: Antiviral activity against drug-resistant HIV-1 harboring RT L100I mutant infected in human MT4 cells assessed as protection against virus-induced cytopathicity measured after 5 days post-infection by MTT assay. The format is functional, organism-based. The following applies: Human immunodeficiency virus 1, MT4, 120 h. (In general: Protection from cytopathic effect is a common read-out in antiviral testing.)

Series [5] has as its system Human immunodeficiency virus 1. The series can be described thus: Antiviral activity against drug-resistant HIV-1 harboring RT E138K mutant infected in human MT4 cells assessed as protection against virus-induced cytopathicity measured after 5 days post-infection by MTT assay. It is filed as functional, organism-based. Particulars: Human immunodeficiency virus 1, MT4, 120 h.

The test system of series [6] is Human immunodeficiency virus 1. The series can be described thus: Antiviral activity against drug-resistant HIV-1 harboring RT RES056 mutant infected in human MT4 cells assessed as protection against virus-induced cytopathicity measured after 5 days post-infection by MTT assay. The format is functional, organism-based. The following applies: Human immunodeficiency virus 1, MT4, 120 h.

Series [7] concerns Human immunodeficiency virus 1. Description: Antiviral activity against wild-type HIV-1 IIIB infected in human MT4 cells assessed as protection against virus-induced cytopathicity measured after 5 days post-infection by MTT assay. The format is functional, organism-based. The following applies: Human immunodeficiency virus 1, IIIB, MT4, 120 h.
A short description of series [8]: Metabolic stability in human liver microsomes assessed as half life at 1 uM measured up to 45 mins by LC/MS/MS analysis. The format is ADME, Microsome. (In general: Microsomes from liver hold many membrane-bound enzymes, among them those of drug oxidation.)
Series [9] deals with Human immunodeficiency virus 1. The series can be described thus: Antiviral activity against drug-resistant HIV-1 harboring RT K103N mutant infected in human MT4 cells assessed as protection against virus-induced cytopathicity measured after 5 days post-infection by MTT assay. The format is functional, organism-based. The following applies: Human immunodeficiency virus 1, MT4, 120 h.

Series [10] relates to Human immunodeficiency virus 1. Description: Antiviral activity against drug-resistant HIV-1 harboring RT Y181C mutant infected in human MT4 cells assessed as protection against virus-induced cytopathicity measured after 5 days post-infection by MTT assay. It is filed as functional, organism-based. The following applies: Human immunodeficiency virus 1, MT4, 120 h.
Series [11] relates to Human immunodeficiency virus 1. The series can be described thus: Antiviral activity against drug-resistant HIV-1 harboring RT Y188L mutant infected in human MT4 cells assessed as protection against virus-induced cytopathicity measured after 5 days post-infection by MTT assay. It is filed as functional, organism-based. The following applies: Human immunodeficiency virus 1, MT4, 120 h.

Series [12] has as its system Human immunodeficiency virus 1. Description: Antiviral activity against drug-resistant HIV-1 harboring RT F227L/V106A mutant infected in human MT4 cells assessed as protection against virus-induced cytopathicity measured after 5 days post-infection by MTT assay. The format is functional, organism-based. The following applies: Human immunodeficiency virus 1, MT4, 120 h.

The target of series [13] is Human immunodeficiency virus type 1 reverse transcriptase (Human immunodeficiency virus 1, UniProt Q72547). Description: Inhibition of recombinant wild type HIV-1 reverse transcriptase incubated for 40 mins in presence of poly(rA) template/oligo(dT)16 primer by Pico-Green dye based analysis.
The nature of series [14]: Metabolic stability in rat liver microsomes assessed as half life at 1 uM measured up to 45 mins by LC/MS/MS analysis. The format is ADME, Microsome. The following applies: 0.75 h.
The nature of series [15]: Metabolic stability in dog liver microsomes assessed as half life at 1 uM measured up to 45 mins by LC/MS/MS analysis. The format is ADME, Canis lupus familiaris, Microsome. Particulars: liver microsomes.
A short description of series [16]: Drug metabolism in human liver microsomes assessed as metabolic fraction at 1 uM measured up to 45 mins by LC/MS/MS analysis. The format is ADME, Microsome. Particulars: liver microsomes, read-out: Fm.
A short description of series [17]: Drug metabolism in rat liver microsomes assessed as metabolic fraction at 1 uM measured up to 45 mins by LC/MS/MS analysis. The following applies: 0.75 h. It is filed as ADME, Microsome.
Series [18] can be described thus: Drug metabolism in dog liver microsomes assessed as metabolic fraction at 1 uM measured up to 45 mins by LC/MS/MS analysis. It is filed as ADME, Canis lupus familiaris, Microsome. Particulars: liver microsomes, read-out: Fm.

Where only a bound is given, the exact number is not on record here.

Broadly, the solubility is the concentration that dissolves in the medium under given conditions. Low readings indicate little dissolved substance, high ones much dissolved substance. The term CC50 denotes the concentration giving 50% cytotoxicity. Usually EC50 stands for the concentration at which the effect is half-maximal. By half-life is commonly meant the time needed for the level to fall by half in the phase considered. What is called IC50 is the midpoint of a concentration-inhibition curve.

With `CC(=O)CC(c1ccccc1)c1c(O)c2ccccc2oc1=O` (stereo not drawn) [WARFARIN], the recovery at 6 h, 1 µM in series [1] worked out at 96.9%.

In the case of `Cc1cc(C#N)cc(C)c1Oc1nc(Nc2ccc(C#N)cc2)nc(N)c1Br` [ETRAVIRINE], the solubility in series [2] was < 1 µg/mL. Also, in [3], the CC50 was > 4.6 µM. Besides, the figures for the EC50 in [4], in [5] and in series [6] were 4.22 nM, 10.3 nM and 36.5 nM, respectively.

As to `Cc1cc(/C=C/C#N)cc(C)c1Nc1ccnc(Nc2ccc(C#N)cc2)n1` [RILPIVIRINE], the EC50 in series [7] was determined as 1.27 nM; in [4], 2.05 nM; in series [9], 0.89 nM; in series [10] it was 2.66 nM; in series [11], 54 nM; in series [5], 3.14 nM. For the same molecule, the EC50 in [12] worked out at 50.8 nM; in [6], 12.4 nM. In addition, in series [3], the CC50 came to 6.8 µM. The half-life at 1 µM in series [8] (liver microsomes) was found to be 16 min; in [15], 79.3 min. The t1/2 in series [8] (microsomes, 0.75 h, 1 µM) stood at 16 min; in series [14] it was 7.3 min. In addition, the IC50 in series [13] amounted to 20 nM. Moreover, the metabolised at 0.75 h, 1 µM was 13% in series [16] and 44.8% in series [18]. The Fm in series [17] is listed as 13.3%.
